Experimental data reported in publication PMC5817083, “Oligopeptide Targeting Sortase A as Potential Anti-infective Therapy for Staphylococcus aureus” (Frontiers in Microbiology, 2018).
Entries after “also recorded” stand apart in the source; their conditions may differ. Marks after values point to notes of the source that are not given here.

Assays:
SrtAN114A [1] = target: T1, SrtAN114A (Staphylococcus aureus, UniProt Q2FV99, N114A); assay: SrtA activity inhibition assay, mutant SrtAN114A; assay type: biochemical; settings: Figure 5C
T1 construct: GST (cleaved yes); made in house; host or cells: Escherichia coli BL21 (DE3)
Method: (§1) The procedures followed for expression and purification of the mutant proteins (SrtAN114A, SrtAC184A, and SrtAR197A) were identical to those followed for the wild-type protein (SrtAΔN59).
(§2) Site-directed mutagenesis for SrtAN114A, SrtAC184A, and SrtAR197A was conducted using a recombinant vector encoding SrtAΔN59 with a QuickChange Site-Directed Mutagenesis Kit (Stratagene, La Jolla, CA, United States). The primer pairs for these three mutations were as follows: N114A forward, 5′-[…]-3′; N114A reverse, 5′-[…]-3′; C184A forward, 5′-[…]-3′; C184A reverse, 5′-[…]-3′; R197A forward, 5′-[…]-3′; and R197A reverse, 5′-[…]-3′.
(§3) The inhibitory effect of the oligopeptide against SrtA and its mutants activity was determined as previously described in 96-well black plates (PerkinElmer, Boston, MA, United States) ([Wang et al., 2015c]). Briefly, 100 μL of purified SrtA ([…]) was preincubated with 100 μL of increasing concentrations of the oligopeptide (3.125–25 μM) in reaction buffer at 37°C for 20 min. The model fluorescent peptide substrate Dabcyl-[…]-Edans (GL Biochem, Shanghai, China) (final concentration of 10 μM) was added to the reaction system, followed by incubation at 37°C for 1 h. Fluorescence intensity was measured at […] wavelengths of 350 and 520 nm, respectively. The experiments were repeated three times independently for each sample.

SrtAC184A [2] = target: T2, SrtAC184A (Staphylococcus aureus, UniProt Q2FV99, C184A); assay: SrtA activity inhibition assay, mutant SrtAC184A; assay type: biochemical; settings: Figure 5C
T2 construct: GST (cleaved yes); made in house; host or cells: Escherichia coli BL21 (DE3)
Method: as §1, §2, §3

SrtAR197A [3] = target: T3, SrtAR197A (Staphylococcus aureus, UniProt Q2FV99, R197A); assay: SrtA activity inhibition assay, mutant SrtAR197A; assay type: biochemical; settings: Figure 5C
T3 construct: GST (cleaved yes); made in house; host or cells: Escherichia coli BL21 (DE3)
Method: as §1, §2, §3

SrtAWT = target: T4, SrtAWT (Staphylococcus aureus, UniProt Q2FV99); assay: Fluorescence spectroscopy quenching binding constant, SrtAWT
T4 construct: GST (cleaved yes); made in house; host or cells: Escherichia coli BL21 (DE3)
Description: (§4) In this study, the fluorescence quenching method was used to measure the binding constants (KA) of ligands to proteins. A 280-nm excitation wavelength with 5-nm band pass and a 345-nm emission wavelength with 10-nm band pass were used for the measurements. Details of the measurement procedures have been described previously ([Bandyopadhyay et al., 2002]; [Jurasekova et al., 2009]).

SrtAN114A [4] = target: T1, SrtAN114A; assay: Fluorescence spectroscopy quenching binding constant, SrtAN114A
Description: as §4

SrtAC184A [5] = target: T2, SrtAC184A; assay: Fluorescence spectroscopy quenching binding constant, SrtAC184A
Description: as §4

SrtAR197A [6] = target: T3, SrtAR197A; assay: Fluorescence spectroscopy quenching binding constant, SrtAR197A
Description: as §4

MRSA strain USA 300 = assay: Broth microdilution MIC; assay type: cell-based, Staphylococcus aureus; settings: for anti-S. aureus (bacteriostatic) activity: at concentrations that inhibit SrtA activity
Method: (§5) The broth microdilution method was used to determine the minimum inhibitory concentration (MIC) of the oligopeptide against the MRSA strain USA 300 according to the NCCLS guideline M31-A2. For the growth curve experiment, an overnight bacterial culture was inoculated in fresh TSB (1:100) with the indicated concentrations of the oligopeptide, and the optical density (OD) at 600 nm was measured for each sample at 1-h intervals.

S. aureus USA 300 = assay: Growth curve experiment (OD 600 nm); assay type: cell-based, Staphylococcus aureus; settings: USA 300 in TSB, oligopeptide 3.125–25 μM
Method: as §5

[7] = test system: surface protein A display on S. aureus; assay: Immunofluorescence assay of surface protein A; assay type: cell-based, Staphylococcus aureus; settings: S. aureus cultured with oligopeptide 37°C 2.5 h, confocal microscopy
Method: Detection of surface protein A by immunofluorescence analysis was performed as described previously ([Chen et al., 2014]). Briefly, S. aureus were cultured in TSB with or without the oligopeptide at 37°C for 2.5 h, pelleted by centrifugation (3,000 × g, 10 min), washed three times with PBS, blocked with 2% BSA for 1 h at 37°C, stained with fluorescein isothiocyanate (FITC)-labeled goat anti-rabbit IgG for 2 h at 37°C, and observed under a laser scanning confocal microscope (Olympus, Tokyo, Japan).

[8] = test system: S. aureus USA 300 adherence to bovine fibronectin; assay: Fibronectin-binding assay; assay type: cell-based, Staphylococcus aureus; settings: USA 300 treated with oligopeptide, crystal violet OD570 nm
Method: Ninety-six-well flat-bottom polystyrene plates were coated with 100 μL of 2 μg/mL fibronectin in PBS (fibronectin from bovine plasma; Sigma–Aldrich, St. Louis, MO, United States) per well and incubated at 4°C overnight. Each well was washed three times with PBS and blocked with 5% BSA in PBS at 37°C for 2 h. An overnight bacterial culture was inoculated in fresh TSB (1:100, OD600 nm ≈ 0.2) with the indicated concentrations of the oligopeptide and incubated until the OD600 nm reached 0.5. Then, the cells were centrifuged at 5000 × g for 10 min and resuspended in PBS to an OD600 nm of 1.0. One hundred microliters of bacterial suspension were added to each fibronectin-coated plate well as described above, and the plates were incubated at 37°C for 2 h. After removal of the cell suspension, 25% (v/v) formaldehyde was added to fix S. aureus. Then, the bacteria attached to fibronectin were stained with 100 μL of 0.4% crystal violet dye for 20 min at 37°C after being washed once with PBS. Following removal of the supernatant, adherence was quantified by measuring the OD570 nm for each well. USA 300 without the oligopeptide was used as a positive control, and PBS was used as a negative control.

[9] = test system: S. aureus invasion into J774 cells; assay: Invasion assay in J774 cells; assay type: cell-based, Staphylococcus aureus; settings: 25 μM oligopeptide, infection 1 h, CFU of lysed cells
Method: J774 cells were adjusted to 4 × 10^5 per glass slide in 24-well plates in Dulbecco’s […] essential medium (DMEM) supplemented with 10% fetal bovine serum (FBS) and cultured in an incubator at 5% CO2 and 37°C overnight. An overnight bacterial culture was inoculated in fresh TSB (1:100, OD600 nm ≈ 0.2) with the indicated concentrations of the oligopeptide and incubated until the OD600 nm reached 1.0. Then, the bacteria were resuspended in DMEM containing 10% FBS at a concentration of 1 × 10^8 CFU/mL, and 1 mL of the resuspension was added to each well for infection at 37°C for 1 h. Invasion was terminated by incubation with 300 μg/mL gentamicin for 30 min. After three washes with PBS, coverslips were placed in 0.2% Triton X-100 with vigorous vortexing, and the diluted lysates were plated onto TSB agar plates to enumerate the number of bacteria associated with each sample.

[10] = test system: S. aureus-induced mastitis; assay: Mouse mastitis model of S. aureus infection; assay type: in vivo, BALB/c mice; settings: for protection against S. aureus-induced mastitis: mouse model
Method: BALB/c mice (from the Experimental Animal Center of Jilin University) were obtained and housed under specific pathogen-free conditions. All animal studies were approved by and conducted in accordance with the guidelines of the Animal Welfare and Research Ethics Committee of Jilin University. An overnight bacterial culture was inoculated in fresh TSB broth (1:100, OD600 nm ≈ 0.2) and incubated until the OD600 nm reached 0.8. Cells were harvested by centrifugation at 3,000 × g for 10 min, washed three times with PBS, and resuspended in PBS to a concentration of 1 × 10^9 CFU/mL for the mastitis infection experiment.
For establishment of a mastitis model of infection, lactating BALB/c mice, 10–12 weeks of age and weighing 30–32 g, were anesthetized using sodium pentobarbital and infected by injecting the canal glands with 50 μL of staphylococcal suspension per breast. The infected mice were administered 50 mg/kg of the oligopeptide subcutaneously at the time of infection and then at 12-h intervals. The control mice received an equal volume of PBS at the same time points. To evaluate the pathological correlates of mastitis, mammary gland tissues isolated from sacrificed mice at 48 h post-infection were fixed in 4% paraformaldehyde, stained with hematoxylin and eosin, and visualized by light microscopy. Furthermore, additional mammary gland tissues from the mice sacrificed at 48 h post-infection were homogenized in PBS containing 2% Triton X-100, after which they were appropriately diluted and inoculated onto TSB agar plates for assessment of the bacterial burden. The levels of the inflammatory cytokines IL-1β, IL-6, and TNF-α in the supernatants were measured using ELISA kits.

SrtA (SrtAΔN59) = target: T5, SrtA (SrtAΔN59) (Staphylococcus aureus, UniProt Q2FV99); assay: SrtA activity inhibition assay (fluorescent substrate Dabcyl-[…]-Edans); assay type: biochemical; settings: purified SrtA preincubated with oligopeptide 3.125–25 μM, 37°C 20 min; substrate 10 μM, 1 h
T5 construct: GST (cleaved yes); made in house; host or cells: Escherichia coli BL21 (DE3)
Method: An Escherichia coli BL21 (DE3) strain harboring a recombinant vector encoding SrtA∆N59 was used, as described previously ([Wang et al., 2015c]). Cells were cultured overnight at 16°C with 1 mM isopropyl-β-D-thiogalactopyranoside (IPTG, Invitrogen, Carlsbad, CA, United States) in TSB containing ampicillin to induce SrtA expression until the OD600 reached 0.6 ∼ 0.8. Then, the cells were harvested by centrifugation at 5,500 × g for 10 min, resuspended in reaction buffer (50 mM Tris-HCl, 5 mM CaCl2, and 150 mM NaCl, pH 7.5) and lysed by sonication. […] The bound GST-tagged proteins were incubated with Precision Protease at 4°C overnight prior to elution with reaction buffer. Purified SrtA proteins were concentrated to […] via centrifugal filtration (Millipore, Bedford, MA, United States) and subsequently analyzed by SDS-PAGE.
The inhibitory effect of the oligopeptide against SrtA and its mutants activity was determined as previously described in 96-well black plates (PerkinElmer, Boston, MA, United States) ([Wang et al., 2015c]). Briefly, 100 μL of purified SrtA ([…]) was preincubated with 100 μL of increasing concentrations of the oligopeptide (3.125–25 μM) in reaction buffer at 37°C for 20 min. […] Fluorescence intensity was measured at […] wavelengths of 350 and 520 nm, respectively. […]

Substance	sensitivity of SrtAN114A to oligopeptide-induced inhibition compared to wild-type SrtA (SrtAN114A [1])	sensitivity of SrtAC184A to oligopeptide-induced inhibition compared to wild-type SrtA (SrtAC184A [2])	sensitivity of SrtAR197A to oligopeptide-induced inhibition compared to wild-type SrtA (SrtAR197A [3])	binding constant KA (SrtAWT)	binding constant KA (SrtAN114A [4])	binding constant KA (SrtAC184A [5])	binding constant KA (SrtAR197A [6])	MIC (MRSA strain USA 300; MRSA USA 300, broth microdilution)	anti-S. aureus (bacteriostatic) activity (MRSA strain USA 300)	anti-S. aureus (bacteriostatic) activity (MRSA strain USA 300; listed as oligopeptide)	growth of S. aureus (S. aureus USA 300)	display (anchoring) of surface protein A, binding of FITC-conjugated IgG [7]	adherence to fibronectin [8]	invasion of S. aureus into J774 cells [9]	inflammatory responses and pathological changes of mammary gland tissues ([10]; lactating BALB/c mice, 50 mg/kg at infection then 12-h intervals, 48 h post-infection, vs PBS, listed as oligopeptide, 50 mg/kg)	levels of cytokines IL-1β, IL-6 and TNF-α in mammary gland tissues ([10]; lactating BALB/c mice, 50 mg/kg, 48 h post-infection, ELISA)	bacterial burden in mammary gland tissues ([10]; lactating BALB/c mice, 50 mg/kg, 48 h post-infection, vs PBS-treated control)	protection against S. aureus-induced mastitis [10]	protection against S. aureus-induced mastitis ([10]; listed as oligopeptide)	IC50 (SrtA (SrtAΔN59)) [µM]
LPRDA	significantly decreased	significantly decreased	significantly decreased	6.6 ± 1.3 (1 × 10^4) L⋅mol^-1	4.2 ± 1.1 (1 × 10^4) L⋅mol^-1	5.1 ± 1.2 (1 × 10^4) L⋅mol^-1	5.0 ± 1.4 (1 × 10^4) L⋅mol^-1	greater than 200 μM	without anti-S. aureus activity	no anti-Staphylococcus aureus activity; also recorded: no bacteriostatic activity	not visibly affected	significantly hindered the binding of FITC-conjugated IgG; also recorded: decreased	decreased adherence	significant anti-invasive activity	effectively alleviated; also recorded: Significant alleviation; also recorded: remarkably alleviated	significantly reduced	significant decrease	conferred effective protection	provided protection	
LPRDA (PEG2000-LPRDA-NH2)																				10.6
